Assay results from patent US20070128217A1 (priority 2003, published 2007).

What was measured:
[1] = system: rabbit serum obtained by immunizing a rabbit with the SARS-CoV strain Frankfurt 1; type: binding; set-up: Binding of a rabbit serum to linear peptides / Binding of a rabbit serum to looped peptides / Rabbit serum linear peptides / Rabbit serum looped peptides / Binding of a rabbit serum to linear peptides of protein N of SARS-CoV Urbani (Rabbit serum linear peptides) / Binding of a rabbit serum to looped/cyclic peptides of protein N of SARS-CoV Urbani (Rabbit serum looped peptides): unit not given here
[2] = system: recombinant human anti-SARS-CoV antibody 03-018; type: binding; set-up: Binding of antibody 03-018 to linear peptides of the N protein of SARS-CoV Urbani / Binding of antibody 03-018 to looped/cyclic peptides of the N protein of SARS-CoV Urbani: unit not given here
[3] = system: control sera (pooled serum of ten healthy LUMC hospital workers; commercial negative donor pooled serum from the Dutch bloodbank); type: binding, human; set-up: Binding of Control serum LUMC to linear peptides / Binding of Control serum Blood-bank to linear peptides / Binding of Control serum LUMC to looped peptides / Binding of Control Serum Blood-Bank to Looped peptides / Binding of Control serum LUMC to linear peptides of the protein M of SARS-CoV Urbani / Binding of Control serum Blood-bank to linear peptides of the protein M of SARS-CoV Urbani / Binding of Control serum LUMC to looped peptides of the protein M of SARS-CoV Urbani / Binding of Control Serum Blood-Bank to Looped peptides of the protein M of SARS-CoV Urbani: unit not given here
[4] = system: antibodies in sera from SARS patients (sera 1a, 1b, 2, 6, 37, 62, London, SARS-yellow, SARS-green); type: binding, human; set-up: Binding of serum 6 to linear peptides of protein X1 of SARS-CoV Urbani / Binding of serum 37 to linear peptides of protein X1 of SARS-CoV Urbani / Binding of serum 6 to looped/cyclic peptide (PEPSCAN-ELISA) / Binding of serum 37 to looped/cyclic peptide (PEPSCAN-ELISA) / Binding of serum 37 to looped/cyclic peptides of protein X1 of SARS-CoV Urbani / Binding of serum 6 to linear peptides of protein X2 / Binding of serum 37 to linear peptides of protein X2 / Binding of serum 37 to looped/cyclic peptides of protein X2 of SARS-CoV Urbani / Binding of serum 6 to linear peptides of protein M of SARS-CoV Urbani / Binding of serum 37 to linear peptides of protein M of SARS-CoV Urbani / Binding of serum 6 to looped/cyclic peptides of protein M of SARS-CoV Urbani / Binding of serum 37 to looped/cyclic peptides of protein M of SARS-CoV Urbani / Binding of serum 6 to linear peptides of protein X3 of SARS-CoV Urbani / Binding of serum 37 to linear peptides of protein X3 of SARS-CoV Urbani / Binding of serum 37 to looped/cyclic peptides of protein X3 of SARS-CoV Urbani / Binding of serum 6 to linear peptides of protein X4 of SARS-CoV Urbani / Binding of serum 37 to linear peptides of protein X4 of SARS-CoV Urbani / Binding of serum 37 to looped/cyclic peptides of protein X4 of SARS-CoV Urbani / Binding of serum 6 to linear peptides of protein X5 of SARS-CoV Urbani / Binding of serum 37 to linear peptides of protein X5 of SARS-CoV Urbani / Binding of serum 37 to looped/cyclic peptides of protein X5 of SARS-CoV Urbani / Binding of serum 6 to linear peptides of protein N of SARS-CoV Urbani / Binding of serum 37 to linear peptides of protein N of SARS-CoV Urbani / Binding of serum 6 to linear peptide (PEPSCAN-ELISA) / Binding of serum 1a to looped/cyclic peptides of protein N of SARS-CoV Urbani / Binding of serum 1b to looped/cyclic peptides of protein N of SARS-CoV Urbani / Binding of serum 2 to looped/cyclic peptides of protein N of SARS-CoV Urbani / Binding of serum 6 to looped/cyclic peptides of protein N of SARS-CoV Urbani / Binding of serum 37 to looped/cyclic peptides of protein N of SARS-CoV Urbani / Binding of serum 62 to looped/cyclic peptides of protein N of SARS-CoV Urbani / Binding of serum London to looped/cyclic peptides of protein N of SARS-CoV Urbani / Binding of serum SARS-green to looped/cyclic peptides of protein N of SARS-CoV Urbani: unit not given here

AADMDDFSRQLQNSM
1.2: Binding of serum 6 to linear peptides of protein N of SARS-CoV Urbani [4]
0.6: Binding of serum 62 to linear peptides of protein N of SARS-CoV Urbani [4]
0.2: Binding of a rabbit serum to linear peptides of protein N of SARS-CoV Urbani (Rabbit serum linear peptides) [1] | Binding of antibody 03-018 to linear peptides of the N protein of SARS-CoV Urbani [2] | Binding of antibody 03-018 to looped/cyclic peptides of the N protein of SARS-CoV Urbani [2] | Binding of serum 1b to linear peptides of protein N of SARS-CoV Urbani [4] | Binding of serum 1b to looped/cyclic peptides of protein N of SARS-CoV Urbani [4] | Binding of serum 2 to linear peptides of protein N of SARS-CoV Urbani [4] | Binding of serum London to looped/cyclic peptides of protein N of SARS-CoV Urbani [4] | Binding of serum SARS-green to looped/cyclic peptides of protein N of SARS-CoV Urbani [4] | Binding of serum SARS-yellow to looped/cyclic peptides of protein N of SARS-CoV Urbani [4]
0.3: Binding of a rabbit serum to looped/cyclic peptides of protein N of SARS-CoV Urbani (Rabbit serum looped peptides) [1] | Control serum LUMC looped peptides [3] | Binding of serum 1a to linear peptides of protein N of SARS-CoV Urbani [4] | Binding of serum 1a to looped/cyclic peptides of protein N of SARS-CoV Urbani [4] | Binding of serum 2 to looped/cyclic peptides of protein N of SARS-CoV Urbani [4] | Binding of serum 62 to looped/cyclic peptides of protein N of SARS-CoV Urbani [4]
0.4: Control Serum Blood-Bank Looped peptides [3] | Binding of serum SARS-green to linear peptides of protein N of SARS-CoV Urbani [4]
0.7: Control serum LUMC linear peptides [3] | Binding of serum 37 to linear peptides of protein N of SARS-CoV Urbani [4] | Binding of serum London to linear peptides of protein N of SARS-CoV Urbani [4] | Binding of serum SARS-yellow to linear peptides of protein N of SARS-CoV Urbani [4]
0.8: Control serum Blood-bank linear peptides [3]
0.5: Binding of serum 37 to looped/cyclic peptides of protein N of SARS-CoV Urbani [4]
1.6: Binding of serum 6 to looped/cyclic peptides of protein N of SARS-CoV Urbani [4]

AEASKKPRQKRTATK
0.7: Binding of serum 37 to linear peptide (PEPSCAN-ELISA) [4] | Binding of serum 62 to linear peptide (PEPSCAN-ELISA) [4] | Binding of serum SARS-yellow to linear peptide (PEPSCAN-ELISA) [4]
0.1: Binding of a rabbit serum to looped/cyclic peptides of protein N of SARS-CoV Urbani (Rabbit serum looped peptides) [1] | Binding of antibody 03-018 to linear peptides of the N protein of SARS-CoV Urbani [2] | Binding of serum 1b to linear peptide (PEPSCAN-ELISA) [4] | Binding of serum 1b to looped/cyclic peptides of protein N of SARS-CoV Urbani [4] | Binding of serum 6 to looped/cyclic peptides of protein N of SARS-CoV Urbani [4] | Binding of serum SARS-green to looped/cyclic peptides of protein N of SARS-CoV Urbani [4]
0.2: Binding of a rabbit serum to linear peptides of protein N of SARS-CoV Urbani (Rabbit serum linear peptides) [1] | Binding of antibody 03-018 to looped/cyclic peptides of the N protein of SARS-CoV Urbani [2] | Binding of serum 1a to linear peptide (PEPSCAN-ELISA) [4] | Binding of serum 1a to looped/cyclic peptides of protein N of SARS-CoV Urbani [4] | Binding of serum 2 to linear peptide (PEPSCAN-ELISA) [4] | Binding of serum 2 to looped/cyclic peptides of protein N of SARS-CoV Urbani [4] | Binding of serum SARS-yellow to looped/cyclic peptides of protein N of SARS-CoV Urbani [4]
0.8: Binding of Control serum Blood-bank to linear peptides [3] | Binding of Control serum LUMC to linear peptides [3]
0.4: Binding of Control Serum Blood-Bank to Looped peptides [3] | Binding of Control serum LUMC to looped peptides [3] | Binding of serum 37 to looped/cyclic peptides of protein N of SARS-CoV Urbani [4] | Binding of serum London to linear peptide (PEPSCAN-ELISA) [4] | Binding of serum SARS-green to linear peptide (PEPSCAN-ELISA) [4]
0.3: Binding of serum 6 to linear peptide (PEPSCAN-ELISA) [4] | Binding of serum 62 to looped/cyclic peptides of protein N of SARS-CoV Urbani [4] | Binding of serum London to looped/cyclic peptides of protein N of SARS-CoV Urbani [4]
